Experiment: The compound was tested for anesthetic potency in tadpoles
Assay type: functional, frog

SMILES: CCCCCC1(CCO)N=N1
- EC50: 160 µM
